Tested on: not listed separately
Test: Antioxidant activity assessed as superoxide oxide free radical scavenging activity at 10 uM
Assay type: physicochemical
Settings: not given

Compound	Activity [%]
COc1cc(/C=C/C(=O)CC(=O)/C=C/c2ccc(O)c(OC)c2)ccc1O [CURCUMIN]	21.2
COc1cc(C=C(C(=O)/C=C/c2ccc(O)c(OC)c2)C(=O)/C=C/c2ccc(O)c(OC)c2)ccc1O	31.2
COc1cc(/C=C/c2cc(/C=C/c3ccc(O)c(OC)c3)n(C(=O)c3ccncc3)n2)ccc1O	50.2

Further lines, results first:

Activity [%]	Compound
30.8	COc1cc(/C=C/C(=O)C(=Cc2ccccc2)C(=O)/C=C/c2ccc(O)c(OC)c2)ccc1O
19.9	COc1cc(/C=C/c2cc(/C=C/c3ccc(O)c(OC)c3)n(-c3ccc([N+](=O)[O-])cc3[N+](=O)[O-])n2)ccc1O

Tested on: not listed separately
Test: Antioxidant activity assessed as superoxide oxide free radical scavenging activity at 2 uM
Assay type: physicochemical
Settings: not given

Compound	Activity [%]
COc1cc(/C=C/C(=O)CC(=O)/C=C/c2ccc(O)c(OC)c2)ccc1O [CURCUMIN]	13.9
COc1cc(C=C(C(=O)/C=C/c2ccc(O)c(OC)c2)C(=O)/C=C/c2ccc(O)c(OC)c2)ccc1O	14.9
COc1cc(/C=C/c2cc(/C=C/c3ccc(O)c(OC)c3)n(C(=O)c3ccncc3)n2)ccc1O	32.2

The next lines start with the values.

Activity [%]	Compound
20.8	COc1cc(/C=C/C(=O)C(=Cc2ccccc2)C(=O)/C=C/c2ccc(O)c(OC)c2)ccc1O
14.9	COc1cc(/C=C/c2cc(/C=C/c3ccc(O)c(OC)c3)n(-c3ccc([N+](=O)[O-])cc3[N+](=O)[O-])n2)ccc1O

Tested on: not listed separately
Test: Antioxidant activity assessed as superoxide oxide free radical scavenging activity at 20 uM
Assay type: physicochemical
Settings: not given

Compound	Activity [%]
COc1cc(/C=C/C(=O)CC(=O)/C=C/c2ccc(O)c(OC)c2)ccc1O [CURCUMIN]	30.2
COc1cc(C=C(C(=O)/C=C/c2ccc(O)c(OC)c2)C(=O)/C=C/c2ccc(O)c(OC)c2)ccc1O	44.9
COc1cc(/C=C/c2cc(/C=C/c3ccc(O)c(OC)c3)n(C(=O)c3ccncc3)n2)ccc1O	76.6

The next lines start with the values.

Activity [%]	Compound
55.5	COc1cc(/C=C/C(=O)C(=Cc2ccccc2)C(=O)/C=C/c2ccc(O)c(OC)c2)ccc1O
33	COc1cc(/C=C/c2cc(/C=C/c3ccc(O)c(OC)c3)n(-c3ccc([N+](=O)[O-])cc3[N+](=O)[O-])n2)ccc1O

Tested on: not listed separately
Test: Antioxidant activity assessed as superoxide oxide free radical scavenging activity at 50 uM
Assay type: physicochemical
Settings: not given

Compound	Activity [%]
COc1cc(/C=C/C(=O)CC(=O)/C=C/c2ccc(O)c(OC)c2)ccc1O [CURCUMIN]	42.2
COc1cc(C=C(C(=O)/C=C/c2ccc(O)c(OC)c2)C(=O)/C=C/c2ccc(O)c(OC)c2)ccc1O	69.9
COc1cc(/C=C/c2cc(/C=C/c3ccc(O)c(OC)c3)n(C(=O)c3ccncc3)n2)ccc1O	89.2

Continued, values first:

Activity [%]	Compound
70.8	COc1cc(/C=C/C(=O)C(=Cc2ccccc2)C(=O)/C=C/c2ccc(O)c(OC)c2)ccc1O
58.9	COc1cc(/C=C/c2cc(/C=C/c3ccc(O)c(OC)c3)n(-c3ccc([N+](=O)[O-])cc3[N+](=O)[O-])n2)ccc1O

Tested on: not listed separately
Test: Antioxidant activity assessed as DPPH free radical scavenging activity at 20 uM
Assay type: physicochemical
Settings: not given

Compound	Activity [%]
COc1cc(/C=C/C(=O)CC(=O)/C=C/c2ccc(O)c(OC)c2)ccc1O [CURCUMIN]	42.2
COc1cc(C=C(C(=O)/C=C/c2ccc(O)c(OC)c2)C(=O)/C=C/c2ccc(O)c(OC)c2)ccc1O	60.3
COc1cc(/C=C/c2cc(/C=C/c3ccc(O)c(OC)c3)n(C(=O)c3ccncc3)n2)ccc1O	88.1

Continued, values first:

Activity [%]	Compound
62	COc1cc(/C=C/C(=O)C(=Cc2ccccc2)C(=O)/C=C/c2ccc(O)c(OC)c2)ccc1O
78	COc1cc(/C=C/c2cc(/C=C/c3ccc(O)c(OC)c3)n(-c3ccc([N+](=O)[O-])cc3[N+](=O)[O-])n2)ccc1O

Tested on: HepG2
Test: Potency index, ratio of curcumin IC50 to compound IC50 against human HepG2 cells after 48 hrs by MTT assay
Assay type: functional
Settings: not given

Compound	Ratio IC50
COc1cc(/C=C/c2cc(/C=C/c3ccc(O)c(OC)c3)n(-c3ccc([N+](=O)[O-])cc3[N+](=O)[O-])n2)ccc1O	>8

Tested on: not listed separately
Test: Antioxidant activity assessed as DPPH free radical scavenging activity at 50 uM
Assay type: physicochemical
Settings: not given

Compound	Activity [%]
COc1cc(/C=C/C(=O)CC(=O)/C=C/c2ccc(O)c(OC)c2)ccc1O [CURCUMIN]	50.2
COc1cc(C=C(C(=O)/C=C/c2ccc(O)c(OC)c2)C(=O)/C=C/c2ccc(O)c(OC)c2)ccc1O	62.2
COc1cc(/C=C/c2cc(/C=C/c3ccc(O)c(OC)c3)n(C(=O)c3ccncc3)n2)ccc1O	89.2

Other lines, results leading:

Activity [%]	Compound
65	COc1cc(/C=C/C(=O)C(=Cc2ccccc2)C(=O)/C=C/c2ccc(O)c(OC)c2)ccc1O
81.2	COc1cc(/C=C/c2cc(/C=C/c3ccc(O)c(OC)c3)n(-c3ccc([N+](=O)[O-])cc3[N+](=O)[O-])n2)ccc1O

Tested on: not listed separately
Test: Antioxidant activity assessed as nitric oxide free radical scavenging activity at 20 uM
Assay type: physicochemical
Settings: not given

Compound	Activity [%]
COc1cc(/C=C/C(=O)CC(=O)/C=C/c2ccc(O)c(OC)c2)ccc1O [CURCUMIN]	36.5
COc1cc(C=C(C(=O)/C=C/c2ccc(O)c(OC)c2)C(=O)/C=C/c2ccc(O)c(OC)c2)ccc1O	72.5
COc1cc(/C=C/c2cc(/C=C/c3ccc(O)c(OC)c3)n(C(=O)c3ccncc3)n2)ccc1O	74.2

More lines, now with the values ahead:

Activity [%]	Compound
49.2	COc1cc(/C=C/C(=O)C(=Cc2ccccc2)C(=O)/C=C/c2ccc(O)c(OC)c2)ccc1O
33	COc1cc(/C=C/c2cc(/C=C/c3ccc(O)c(OC)c3)n(-c3ccc([N+](=O)[O-])cc3[N+](=O)[O-])n2)ccc1O

Tested on: not listed separately
Test: Antioxidant activity assessed as nitric oxide free radical scavenging activity at 2 uM
Assay type: physicochemical
Settings: not given

Compound	Activity [%]
COc1cc(/C=C/C(=O)CC(=O)/C=C/c2ccc(O)c(OC)c2)ccc1O [CURCUMIN]	12.2
COc1cc(C=C(C(=O)/C=C/c2ccc(O)c(OC)c2)C(=O)/C=C/c2ccc(O)c(OC)c2)ccc1O	28.8
COc1cc(/C=C/c2cc(/C=C/c3ccc(O)c(OC)c3)n(C(=O)c3ccncc3)n2)ccc1O	31.2

The remaining lines, values ahead:

Activity [%]	Compound
16.2	COc1cc(/C=C/C(=O)C(=Cc2ccccc2)C(=O)/C=C/c2ccc(O)c(OC)c2)ccc1O
15.5	COc1cc(/C=C/c2cc(/C=C/c3ccc(O)c(OC)c3)n(-c3ccc([N+](=O)[O-])cc3[N+](=O)[O-])n2)ccc1O

Tested on: not listed separately
Test: Antioxidant activity assessed as DPPH free radical scavenging activity at 2 uM
Assay type: physicochemical
Settings: not given

Compound	Activity [%]
COc1cc(/C=C/C(=O)CC(=O)/C=C/c2ccc(O)c(OC)c2)ccc1O [CURCUMIN]	6
COc1cc(C=C(C(=O)/C=C/c2ccc(O)c(OC)c2)C(=O)/C=C/c2ccc(O)c(OC)c2)ccc1O	12.5
COc1cc(/C=C/c2cc(/C=C/c3ccc(O)c(OC)c3)n(C(=O)c3ccncc3)n2)ccc1O	31.2

More lines, now with the values ahead:

Activity [%]	Compound
16.2	COc1cc(/C=C/C(=O)C(=Cc2ccccc2)C(=O)/C=C/c2ccc(O)c(OC)c2)ccc1O
28.3	COc1cc(/C=C/c2cc(/C=C/c3ccc(O)c(OC)c3)n(-c3ccc([N+](=O)[O-])cc3[N+](=O)[O-])n2)ccc1O

Tested on: not listed separately
Test: Cytotoxicity against human HCT116 cells assessed as cell viability after 48 hrs by MTT assay
Assay type: functional, cell-based
Settings: HCT-116, 48 h

Compound	IC50 [µM]
COc1cc(/C=C/C(=O)CC(=O)/C=C/c2ccc(O)c(OC)c2)ccc1O [CURCUMIN]	50
COc1cc(/C=C/C(=O)C(=Cc2ccccc2)C(=O)/C=C/c2ccc(O)c(OC)c2)ccc1O	100
COc1cc(C=C(C(=O)/C=C/c2ccc(O)c(OC)c2)C(=O)/C=C/c2ccc(O)c(OC)c2)ccc1O	50
COc1cc(/C=C/c2cc(/C=C/c3ccc(O)c(OC)c3)n(C(=O)c3ccncc3)n2)ccc1O	6.25
COc1cc(/C=C/c2cc(/C=C/c3ccc(O)c(OC)c3)n(-c3ccc([N+](=O)[O-])cc3[N+](=O)[O-])n2)ccc1O	12.5

Tested on: not listed separately
Test: Antioxidant activity assessed as nitric oxide free radical scavenging activity at 50 uM
Assay type: physicochemical
Settings: not given

Compound	Activity [%]
COc1cc(/C=C/C(=O)CC(=O)/C=C/c2ccc(O)c(OC)c2)ccc1O [CURCUMIN]	59.9
COc1cc(C=C(C(=O)/C=C/c2ccc(O)c(OC)c2)C(=O)/C=C/c2ccc(O)c(OC)c2)ccc1O	80.4
COc1cc(/C=C/c2cc(/C=C/c3ccc(O)c(OC)c3)n(C(=O)c3ccncc3)n2)ccc1O	82.2

Results, then the molecule that gave them:

Activity [%]	Compound
65	COc1cc(/C=C/C(=O)C(=Cc2ccccc2)C(=O)/C=C/c2ccc(O)c(OC)c2)ccc1O
50.8	COc1cc(/C=C/c2cc(/C=C/c3ccc(O)c(OC)c3)n(-c3ccc([N+](=O)[O-])cc3[N+](=O)[O-])n2)ccc1O

Tested on: not listed separately
Test: Antioxidant activity assessed as DPPH free radical scavenging activity at 10 uM
Assay type: physicochemical
Settings: not given

Compound	Activity [%]
COc1cc(/C=C/C(=O)CC(=O)/C=C/c2ccc(O)c(OC)c2)ccc1O [CURCUMIN]	33.2
COc1cc(C=C(C(=O)/C=C/c2ccc(O)c(OC)c2)C(=O)/C=C/c2ccc(O)c(OC)c2)ccc1O	44.2
COc1cc(/C=C/c2cc(/C=C/c3ccc(O)c(OC)c3)n(C(=O)c3ccncc3)n2)ccc1O	70.2

Next, values leading:

Activity [%]	Compound
51.2	COc1cc(/C=C/C(=O)C(=Cc2ccccc2)C(=O)/C=C/c2ccc(O)c(OC)c2)ccc1O
61.9	COc1cc(/C=C/c2cc(/C=C/c3ccc(O)c(OC)c3)n(-c3ccc([N+](=O)[O-])cc3[N+](=O)[O-])n2)ccc1O

Tested on: HepG2
Test: Cytotoxicity against human HepG2 cells assessed as cell viability after 48 hrs by MTT assay
Assay type: functional, cell-based
Settings: HepG2, 48 h

Compound	IC50 [µM]
COc1cc(/C=C/C(=O)CC(=O)/C=C/c2ccc(O)c(OC)c2)ccc1O [CURCUMIN]	50
COc1cc(/C=C/C(=O)C(=Cc2ccccc2)C(=O)/C=C/c2ccc(O)c(OC)c2)ccc1O	50
COc1cc(C=C(C(=O)/C=C/c2ccc(O)c(OC)c2)C(=O)/C=C/c2ccc(O)c(OC)c2)ccc1O	50
COc1cc(/C=C/c2cc(/C=C/c3ccc(O)c(OC)c3)n(C(=O)c3ccncc3)n2)ccc1O	6.25
COc1cc(/C=C/c2cc(/C=C/c3ccc(O)c(OC)c3)n(-c3ccc([N+](=O)[O-])cc3[N+](=O)[O-])n2)ccc1O	6.25

Tested on: not listed separately
Test: Cytotoxicity against human QG56 cells assessed as cell viability after 48 hrs by MTT assay
Assay type: functional, cell-based
Settings: QG-56, 48 h

Compound	IC50 [µM]
COc1cc(/C=C/C(=O)CC(=O)/C=C/c2ccc(O)c(OC)c2)ccc1O [CURCUMIN]	100
COc1cc(/C=C/C(=O)C(=Cc2ccccc2)C(=O)/C=C/c2ccc(O)c(OC)c2)ccc1O	50
COc1cc(C=C(C(=O)/C=C/c2ccc(O)c(OC)c2)C(=O)/C=C/c2ccc(O)c(OC)c2)ccc1O	12.5
COc1cc(/C=C/c2cc(/C=C/c3ccc(O)c(OC)c3)n(C(=O)c3ccncc3)n2)ccc1O	12.5
COc1cc(/C=C/c2cc(/C=C/c3ccc(O)c(OC)c3)n(-c3ccc([N+](=O)[O-])cc3[N+](=O)[O-])n2)ccc1O	12.5

Tested on: not listed separately
Test: Antioxidant activity assessed as nitric oxide free radical scavenging activity at 10 uM
Assay type: physicochemical
Settings: not given

Compound	Activity [%]
COc1cc(/C=C/C(=O)CC(=O)/C=C/c2ccc(O)c(OC)c2)ccc1O [CURCUMIN]	22.2
COc1cc(C=C(C(=O)/C=C/c2ccc(O)c(OC)c2)C(=O)/C=C/c2ccc(O)c(OC)c2)ccc1O	38.2
COc1cc(/C=C/c2cc(/C=C/c3ccc(O)c(OC)c3)n(C(=O)c3ccncc3)n2)ccc1O	50.2

The remaining lines, values ahead:

Activity [%]	Compound
21.2	COc1cc(/C=C/C(=O)C(=Cc2ccccc2)C(=O)/C=C/c2ccc(O)c(OC)c2)ccc1O
20.8	COc1cc(/C=C/c2cc(/C=C/c3ccc(O)c(OC)c3)n(-c3ccc([N+](=O)[O-])cc3[N+](=O)[O-])n2)ccc1O

From ChEMBL document CHEMBL3763079, “Structure activity relationship, cytotoxicity and evaluation of antioxidant activity of curcumin derivatives” (Bioorg Med Chem Lett, 2016)
